Drawing on patent publication US12679843B2, “Pyrrolopyrimidine amines as complement inhibitors” (BioCryst Pharmaceuticals, Inc., priority 2020, dated 2026), this text covers IC50 for 25 molecules.

Usually IC50 stands for the point on the concentration scale where inhibition reaches its midpoint.

The structures appear in SMILES notation.

Factor D, sequence (P00746 26-253): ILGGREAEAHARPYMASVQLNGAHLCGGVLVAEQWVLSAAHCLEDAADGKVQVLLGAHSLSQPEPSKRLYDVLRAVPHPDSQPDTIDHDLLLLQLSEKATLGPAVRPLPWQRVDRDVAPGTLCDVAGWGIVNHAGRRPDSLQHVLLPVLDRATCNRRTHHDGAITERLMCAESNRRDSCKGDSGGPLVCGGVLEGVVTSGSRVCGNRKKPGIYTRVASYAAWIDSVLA

The assay has as its target Factor D (Homo sapiens, UniProt P00746). Description: Factor D esterolytic assay (Z-Lys-SBzl thioester substrate, DTNB, 405 nm). Conditions: substrate Z-Lys-SBzl 1.29 mM, 100 mM HEPES, 500 mM NaCl, pH 7.5, 10% DMSO, tested a minimum of three times. In kind it is biochemical. Summed up: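 Human Factor D hydrolysis of Z-Lys-SBzl (1.29 mM) monitored at 405 nm via DTNB thiol detection for 600 s, 690 nm background subtracted. Buffer 100 mM HEPES, 500 mM NaCl, pH 7.5, 10% DMSO; substrate added immediately or after room-temperature preincubation. IC50 from percent inhibition of rate, at least three tests.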
On to `C[C@@]12C[C@@H](C(=O)Nc3cccc(Br)n3)N(C(=O)Cn3c4cc(F)c(F)cc4c4c(N)ncnc43)[C@@H]1C2` [Compound 387a, (1R,3S,5R)-2-(2-(4-amino-6,7-difluoro-9H-pyrimido[4,5-b]indol-9-yl)acetyl)-N-(6-bromopyridin-2-yl)-5-methyl-2-azabicyclo[3.1.0]hexane-3-carboxamide], for which the IC50 was less than 100 nM.

As for `Cc1cc(C(F)(F)F)cc2c3c(N)ncnc3n(CC(=O)N3CCS[C@H]3C(=O)Nc3cccc(Br)n3)c12` [Compound 324a, (S)-3-(2-(4-amino-8-methyl-6-(trifluoromethyl)-9H-pyrimido[4,5-b]indol-9-yl)acetyl)-N-(6-bromopyridin-2-yl)thiazolidine-2-carboxamide], the IC50 is less than 100 nM.

`Nc1ncnc2c1cnn2CC(=O)N1CCC[C@H]1C(=O)Nc1cccc(Br)n1` [Compound 77b, (S)-1-(2-(4-amino-1H-pyrazolo[3,4-d]pyrimidin-1-yl)acetyl)-N-(6-bromopyridin-2-yl)pyrrolidine-2-carboxamide]: the half-maximal inhibitory concentration (IC50) is more than 1000 nM.

In the case of `COC(=O)c1cc(C)c2c(c1)c1c(N)ncnc1n2CC(=O)N1[C@@H]2C[C@@H]2C[C@H]1C(=O)Nc1cccc(Br)n1` [Compound 217a, methyl 4-amino-9-(2-((1R,3S,5R)-3-((6-bromopyridin-2-yl)carbamoyl)-2-azabicyclo[3.1.0]hexan-2-yl)-2-oxoethyl)-8-methyl-9H-pyrimido[4,5-b]indole-6-carboxylate], the 50% inhibitory concentration (IC50) was less than 100 nM.

`COc1cc2c(cc1C)c1c(N)ncnc1n2CC(=O)N1[C@@H]2C[C@@H]2C[C@H]1C(=O)Nc1cccc(Br)n1` [Compound 328f, (1R,3S,5R)-2-(2-(4-amino-7-methoxy-6-methyl-9H-pyrimido[4,5-b]indol-9-yl)acetyl)-N-(6-bromopyridin-2-yl)-2-azabicyclo[3.1.0]hexane-3-carboxamide]: the IC50 is less than 100 nM.

For `Cc1ncc(-c2cn(CC(=O)N3C[C@H](F)C[C@H]3C(=O)Nc3nc(Br)ccc3C)c3ncnc(N)c23)cn1` [Compound 118a, (2S,4R)-1-(2-(4-amino-5-(2-methylpyrimidin-5-yl)-7H-pyrrolo[2,3-d]pyrimidin-7-yl)acetyl)-N-(6-bromo-3-methylpyridin-2-yl)-4-fluoropyrrolidine-2-carboxamide], the IC50 was more than 1000 nM.

Regarding `Nc1ncnc2c1c1cc(C(F)(F)F)ccc1n2CC(=O)N1C(=O)OC[C@H]1C(=O)NCc1cccc(Cl)c1F` [Compound 251f, (S)-3-(2-(4-amino-6-(trifluoromethyl)-9H-pyrimido[4,5-b]indol-9-yl)acetyl)-N-(3-chloro-2-fluorobenzyl)-2-oxooxazolidine-4-carboxamide], the IC50 lay in the range of 100 to 1000 nM.

On to `Cc1cc2c(N)ncnc2n1CC(=O)N1[C@@H]2C[C@@H]2C[C@H]1C(=O)Nc1cccc(Br)n1` [Compound 158e, (1R,3S,5R)-2-(2-(4-amino-6-methyl-7H-pyrrolo[2,3-d]pyrimidin-7-yl)acetyl)-N-(6-bromopyridin-2-yl)-2-azabicyclo[3.1.0]hexane-3-carboxamide], for which the 50% inhibitory concentration (IC50) was in the range of 100 to 1000 nM.

As for `C[C@@]12C[C@@H](C(=O)Nc3cccc(Br)n3)N(C(=O)Cn3c4ccc(-c5ccncc5)nc4c4c(N)ncnc43)[C@@H]1C2` [Compound 373a, (1R,3S,5R)-2-(2-(4-amino-6-(pyridin-4-yl)-9H-pyrido[2′,3′:4,5]pyrrolo[2,3-d]pyrimidin-9-yl)acetyl)-N-(6-bromopyridin-2-yl)-5-methyl-2-azabicyclo[3.1.0]hexane-3-carboxamide], the half-maximal inhibitory concentration (IC50) fell in the range of 100 to 1000 nM.

For `Nc1ncnc2c1c1cc(C(F)(F)F)ccc1n2CC(=O)N1[C@@H]2C[C@@H]2C[C@H]1C(=O)Nc1ccnc(Br)c1` [Compound 259d, (1R,3S,5R)-2-(2-(4-amino-6-(trifluoromethyl)-9H-pyrimido[4,5-b]indol-9-yl)acetyl)-N-(2-bromopyridin-4-yl)-2-azabicyclo[3.1.0]hexane-3-carboxamide], the 50% inhibitory concentration (IC50) was in the range of 100 to 1000 nM.

For the molecule `Cc1cc(C)c2c(c1)c1c(N)ncnc1n2CC(=O)N1[C@H](C(=O)Nc2cccc(Br)n2)C[C@@]2(C)C[C@@H]12` [Compound 191a, (1R,3S,5R)-2-(2-(4-amino-6,8-dimethyl-9H-pyrimido[4,5-b]indol-9-yl)acetyl)-N-(6-bromopyridin-2-yl)-5-methyl-2-azabicyclo[3.1.0]hexane-3-carboxamide], the IC50 is less than 100 nM.

For the molecule `Cc1ccc2c(c1)c1c(N)ncnc1n2CC(=O)N1C[C@H](F)C[C@H]1C(=O)Nc1cccc(Br)n1` [Compound 21a, (2S,4R)-1-(2-(4-amino-6-methyl-9H-pyrimido[4,5-b]indol-9-yl)acetyl)-N-(6-bromopyridin-2-yl)-4-fluoropyrrolidine-2-carboxamide], the concentration for half-maximal inhibition (IC50) is less than 100 nM.

`Nc1ncnc2c1c1nc(-c3ccncc3)ccc1n2CC(=O)N1[C@@H]2C[C@@H]2C[C@H]1C(=O)Nc1cccc(Br)n1` [Compound 307c, (1R,3S,5R)-2-(2-(4-amino-6-(pyridin-4-yl)-9H-pyrido[2′,3′:4,5]pyrrolo[2,3-d]pyrimidin-9-yl)acetyl)-N-(6-bromopyridin-2-yl)-2-azabicyclo[3.1.0]hexane-3-carboxamide]: the IC50 is less than 100 nM.

In the case of `COc1cc(C)c2c(c1)c1c(N)ncnc1n2CC(=O)N1[C@H](C(=O)Nc2cccc(Br)n2)C[C@@]2(C)C[C@@H]12` [Compound 258a, (1R,3S,5R)-2-(2-(4-amino-6-methoxy-8-methyl-9H-pyrimido[4,5-b]indol-9-yl)acetyl)-N-(6-bromopyridin-2-yl)-5-methyl-2-azabicyclo[3.1.0]hexane-3-carboxamide], the IC50 was less than 100 nM.

Turning to `Cc1cc(-c2ccc(C(F)(F)F)nc2)cc2c3c(N)ncnc3n(CC(=O)N3[C@H](C(=O)Nc4cccc(Br)n4)C[C@@]4(C)C[C@@H]34)c12` [Compound 357a, (1R,3S,5R)-2-(2-(4-amino-8-methyl-6-(6-(trifluoromethyl)pyridin-3-yl)-9H-pyrimido[4,5-b]indol-9-yl)acetyl)-N-(6-bromopyridin-2-yl)-5-methyl-2-azabicyclo[3.1.0]hexane-3-carboxamide], the half-maximal inhibitory concentration (IC50) is less than 100 nM.

As for `Cc1cc(C(F)(F)F)cc2c3c(N)ncnc3n(CC(=O)N3C[C@H](F)C[C@H]3C(=O)Nc3cncc(Cl)n3)c12` [Compound 325c, (2S,4R)-1-(2-(4-amino-8-methyl-6-(trifluoromethyl)-9H-pyrimido[4,5-b]indol-9-yl)acetyl)-N-(6-chloropyrazin-2-yl)-4-fluoropyrrolidine-2-carboxamide], the concentration for half-maximal inhibition (IC50) was less than 100 nM.

With `COc1cccc2c1c1c(N)ncnc1n2CC(=O)N1[C@@H]2C[C@@H]2C[C@H]1C(=O)Nc1cccc(Br)n1` [Compound 57g, (1R,3S,5R)-2-(2-(4-amino-5-methoxy-9H-pyrimido[4,5-b]indol-9-yl)acetyl)-N-(6-bromopyridin-2-yl)-2-azabicyclo[3.1.0]hexane-3-carboxamide], the IC50 is less than 100 nM.

With `Nc1ncnc2c1c1cc(C(F)(F)F)ccc1n2CC(=O)N1C[C@H](N)C[C@H]1C(=O)Nc1cccc(Br)n1` [Compound 201e, (2S,4R)-4-amino-1-(2-(4-amino-6-(trifluoromethyl)-9H-pyrimido[4,5-b]indol-9-yl)acetyl)-N-(6-bromopyridin-2-yl)pyrrolidine-2-carboxamide], the IC50 is 100 to 1000 nM.

With `C[C@@]1(F)C[C@@H](C(=O)Nc2cncc(Br)n2)N(C(=O)Cn2c3ccc(C(F)(F)F)cc3c3c(N)ncnc32)C1` [Compound 213d, (2S,4R)-1-(2-(4-amino-6-(trifluoromethyl)-9H-pyrimido[4,5-b]indol-9-yl)acetyl)-N-(6-bromopyrazin-2-yl)-4-fluoro-4-methylpyrrolidine-2-carboxamide], the IC50 was less than 100 nM.

Turning to `COc1cc(C)c2c(c1)c1c(N)ncnc1n2CC(=O)N1[C@@H]2C[C@@H]2C[C@H]1C(=O)Nc1cccc(Br)n1` [Compound 257g, (1R,3S,5R)-2-(2-(4-amino-6-methoxy-8-methyl-9H-pyrimido[4,5-b]indol-9-yl)acetyl)-N-(6-bromopyridin-2-yl)-2-azabicyclo[3.1.0]hexane-3-carboxamide], the IC50 was less than 100 nM.

`Cc1cc2c3c(N)ncnc3n(CC(=O)N3[C@H](C(=O)Nc4cccc(Br)n4)C[C@@]4(C)C[C@@H]34)c2cc1F` [Compound 385a, (1R,3S,5R)-2-(2-(4-amino-7-fluoro-6-methyl-9H-pyrimido[4,5-b]indol-9-yl)acetyl)-N-(6-bromopyridin-2-yl)-5-methyl-2-azabicyclo[3.1.0]hexane-3-carboxamide]: the IC50 was less than 100 nM.

For `Cc1cc(C(F)(F)F)cc2c3c(N)ncnc3n(CC(=O)N3[C@@H]4C[C@@H]4C[C@H]3C(=O)Nc3cncc(C(F)(F)F)n3)c12` [Compound 348c, (1R,3S,5R)-2-(2-(4-amino-8-methyl-6-(trifluoromethyl)-9H-pyrimido[4,5-b]indol-9-yl)acetyl)-N-(6-(trifluoromethyl)pyrazin-2-yl)-2-azabicyclo[3.1.0]hexane-3-carboxamide], the IC50 was less than 100 nM.

Consider `N#C[C@H]1C[C@@H](C(=O)Nc2cccc(Br)n2)N(C(=O)Cn2c3ccc(C(F)(F)F)cc3c3c(N)ncnc32)C1` [Compound 177d, (2S,4S)-1-(2-(4-amino-6-(trifluoromethyl)-9H-pyrimido[4,5-b]indol-9-yl)acetyl)-N-(6-bromopyridin-2-yl)-4-cyanopyrrolidine-2-carboxamide], for which the half-maximal inhibitory concentration (IC50) is 100 to 1000 nM.

Take `Cc1ccc(Br)nc1NC(=O)[C@@H]1C[C@@H](F)CN1C(=O)Cn1cnc2c(N)ncnc21` [Compound 68a, (2S,4R)-1-(2-(6-amino-9H-purin-9-yl)acetyl)-N-(6-bromo-3-methylpyridin-2-yl)-4-fluoropyrrolidine-2-carboxamide]: the IC50 lay in the range of 100 to 1000 nM.

Turning to `Cc1ccc(-c2ccc3c(c2)c2c(N)ncnc2n3CC(=O)N2[C@@H]3C[C@@H]3C[C@H]2C(=O)Nc2cccc(Br)n2)cc1` [Compound 205c, (1R,3S,5R)-2-(2-(4-amino-6-(p-tolyl)-9H-pyrimido[4,5-b]indol-9-yl)acetyl)-N-(6-bromopyridin-2-yl)-2-azabicyclo[3.1.0]hexane-3-carboxamide], the concentration for half-maximal inhibition (IC50) is less than 100 nM.
